# Counter-ions that a name gives are not always drawn. Marks after values point to notes of the source that are not given here.
# System: plasma metabolites
# Conditions: rat, in vivo
compound,measurement,value
Nc1ccccc1Cl [2-Chloroaniline],"3,4-Dihydroxyphenylalanine (DOPA), ratio versus control",0.76
same,"3,4-Dihydroxyphenylglycol (DOPEG), ratio versus control",0.87
same,"3-Hydroxyindole, ratio versus control",1.40
same,"3-Indoxylsulfate, ratio versus control",1.68
same,"3-Methoxytyrosine, ratio versus control",1.48
same,"Cytosine, ratio versus control",1.41
same,"Ketoleucine, ratio versus control",0.60
same,"Ribal, ratio versus control",1.24
same,"Serotonin (5-HT), ratio versus control",2.64
same,biomarkers of table 12a and/or 12b (early indicators of blood anemia) altered as early as,7 days
Nc1ccc(Cl)c([N+](=O)[O-])c1 [4-Chloro-3 nitroaniline],"3-Hydroxyindole, ratio versus control",1.25
same,"3-Indoxylsulfate, ratio versus control",1.34
same,"3-Methoxytyrosine, ratio versus control",1.90
same,"Cytosine, ratio versus control",1.75
same,"Ribal, ratio versus control",1.89
same,"Serotonin (5-HT), ratio versus control",9.50
Nc1ccc(Cl)c([N+](=O)[O-])c1 [4-Chloro-3-nitroaniline],"3,4-Dihydroxyphenylalanine (DOPA), ratio versus control",0.93
same,"3,4-Dihydroxyphenylglycol (DOPEG), ratio versus control",0.53
same,"Ketoleucine, ratio versus control",0.61
same,biomarkers of table 12a and/or 12b (early indicators of blood anemia) altered as early as,7 days
COc1cccc2c1C(=O)c1c(O)c3c(c(O)c1C2=O)C[C@@](O)(C(=O)CO)C[C@@H]3O[C@H]1C[C@H](N)[C@H](O)[C@H](C)O1 [Adriamycin hydrochloride],"3-Hydroxybutyrate, plasma, ratio vs control",0.66 *
same,"18-Hydroxy-11-deoxycorticosterone, plasma, ratio vs control",0.44 *
same,"Choline plasmalogen No 02, plasma, ratio vs control",1.18 *
same,"Citrate, plasma, ratio vs control",0.86
same,"Ketoleucine, plasma, ratio vs control",0.69 *
same,"Lignoceric acid (C24:0), plasma, ratio vs control",2.04 *
same,"Taurine, plasma, ratio vs control",1.39 *
same,"Tricosanoic acid (C23:0), plasma, ratio vs control",2.14 *
Nc1ccccc1 [Aniline],"3,4-Dihydroxyphenylalanine (DOPA), ratio versus control",0.81
same,"3,4-Dihydroxyphenylglycol (DOPEG), ratio versus control",0.84
same,"3-Hydroxyindole, ratio versus control",1.61
same,"3-Indoxylsulfate, ratio versus control",1.64
same,"3-Methoxytyrosine, ratio versus control",1.35
same,"Cytosine, ratio versus control",1.62
same,"Ketoleucine, ratio versus control",0.94
same,"Ribal, ratio versus control",1.66
same,biomarkers of table 12a and/or 12b (early indicators of blood anemia) altered as early as,7 days
N.N.O=C([O-])C1(C(=O)[O-])CCC1.[Pt+2] [Carboplatin],"3-Hydroxybutyrate, plasma, ratio vs control",0.74 *
same,"4-Hydroxyphenylpyruvate, plasma, ratio vs control",0.39 *
same,"14-Methylhexadecanoic acid, plasma, ratio vs control",0.72 *
same,"21-Hydroxyprogesterone (11-Deoxycorticosterone), plasma, ratio vs control",0.09 *
same,"Ascorbic acid, plasma, ratio vs control",0.84 *
same,"Choline plasmalogen (C18, C20:4), plasma, ratio vs control",0.89 *
same,"Corticosterone, plasma, ratio vs control",0.31 *
same,"Fructose-6-phosphate, plasma, ratio vs control",1.74 *
same,"Glucose-6-phosphate, plasma, ratio vs control",2.2 *
same,"Histidine, plasma, ratio vs control",1.17 *
same,"Indole-3-lactic acid, plasma, ratio vs control",1.13 *
same,"Ornithine, plasma, ratio vs control",1.11 *
same,"Phenylalanine, plasma, ratio vs control",1.2 *
same,"Phosphate (inorganic and organic phosphates), plasma, ratio vs control",1.57 *
same,"Phosphatidylcholine (C18:0, C18:2), plasma, ratio vs control",1.22 *
same,"Progesterone, plasma, ratio vs control",0.49*
same,"Taurine, plasma, ratio vs control",1.47 *
same,"Threonic acid, plasma, ratio vs control",1.51 *
same,"Tryptophan, plasma, ratio vs control",1.17 *
O=P1(N(CCCl)CCCl)NCCCO1 (stereo not drawn) [Cyclophosphamide monohydrate],"3-Hydroxybutyrate, plasma, ratio vs control",0.75 *
same,"18-Hydroxy-11-deoxycorticosterone, plasma, ratio vs control",0.16 *
same,"Choline plasmalogen No 02, plasma, ratio vs control",1.13 *
same,"Citrate, plasma, ratio vs control",0.78 *
same,"Isoleucine, plasma, ratio vs control",1.23 *
same,"Ketoleucine, plasma, ratio vs control",0.88 *
same,"Leucine, plasma, ratio vs control",1.33 *
same,"Lignoceric acid (C24:0), plasma, ratio vs control",1.29 *
same,"Taurine, plasma, ratio vs control",1.21 *
same,"Tricosanoic acid (C23:0), plasma, ratio vs control",1.44 *
same,"Valine, plasma, ratio vs control",1.25 *
Nc1ccn([C@@H]2O[C@H](CO)[C@@H](O)[C@@H]2O)c(=O)n1 [Cytarabin],"3-Hydroxybutyrate, plasma, ratio vs control",0.53 *
same,"18-Hydroxy-11-deoxycorticosterone, plasma, ratio vs control",0.13 *
same,"Choline plasmalogen No 02, plasma, ratio vs control",1.11 *
same,"Citrate, plasma, ratio vs control",0.81 *
same,"Isoleucine, plasma, ratio vs control",1.1 *
same,"Ketoleucine, plasma, ratio vs control",0.75 *
same,"Leucine, plasma, ratio vs control",1.12 *
same,"Lignoceric acid (C24:0), plasma, ratio vs control",1.31 *
same,"Taurine, plasma, ratio vs control",1.27 *
same,"Tricosanoic acid (C23:0), plasma, ratio vs control",1.3
same,"Valine, plasma, ratio vs control",1.1 *
C[C@H]1C[C@@H]2[C@H]([C@@H](O)C[C@@]3(C)[C@H]2CC[C@]3(O)C(=O)CO)[C@@]2(C)C=CC(=O)C=C12 [Methylprednisolone],"18-Hydroxy-11-deoxycorticosterone, ratio versus control",0.15 *
same,"Aspartate, ratio versus control",1.37 *
same,"Cholesterolester No 01, ratio versus control",1.08 *
same,"Glutamate, ratio versus control",1.11 *
same,"Glycerol-3-phosphate, polar fraction, ratio versus control",1.4 *
same,"Ketoleucine, ratio versus control",0.75 *
same,"Pyruvate, ratio versus control",0.65 *
C=CC[C@@H]1/C=C(\C)C[C@H](C)C[C@H](OC)[C@H]2O[C@@](O)(C(=O)C(=O)N3CCCC[C@H]3C(=O)O[C@H](/C(C)=C/[C@@H]3CC[C@@H](O)[C@H](OC)C3)[C@H](C)[C@@H](O)CC1=O)[C@H](C)C[C@@H]2OC [Tacrolimus],"18-Hydroxy-11-deoxycorticosterone, ratio versus control",0.48 *
same,"Aspartate, ratio versus control",1.42 *
same,"Cholesterolester No 01, ratio versus control",1.05 *
same,"Glutamate, ratio versus control",1.29 *
same,"Glycerol-3-phosphate, polar fraction, ratio versus control",1.54 *
same,"Ketoleucine, ratio versus control",0.85 *
same,"Pyruvate, ratio versus control",0.77 *
Lead acetate trihydrate,"Cholesterolester No 01, plasma, ratio vs control",1.28 *
same,"Glucose, plasma, ratio vs control",0.91
same,"Phosphatidylcholine (C16:0, C18:2), plasma, ratio vs control",1.06 *
same,"Sphingomyelin (d18:2, C18:0), plasma, ratio vs control",1.09 *
same,"TAG (C18:1, C18:2), plasma, ratio vs control",1.33 *
same,"TAG (C18:2, C18:2), plasma, ratio vs control",1.48 *
same,"TAG No 01, plasma, ratio vs control",1.5 *

# Reference: patent publication US20150037825A1 (priority 2011, published 2015)
